Assay results as given in patent US8269005B2 (Sunovion Pharmaceuticals Inc., priority 2007, dated 2012).

How the values were obtained:
[1] = Aqueous solubility (24 hour equilibrated suspension in water, HPLC); type: physicochemical; details: for pH measured at saturation: saturated suspension in water
Protocol: The aliquot was diluted and analyzed by HPLC (Waters). The data was compared to a standard curve generated from a set of solutions of known concentrations. The standard curve and the samples were analyzed using a HPLC using the following conditions: […]

[2] = Tablet dissolution over time in media of various pH; type: physicochemical; details: for Dependence of dissolution on pH of the medium: oral dosage form, pH 1 to 6.8 and deionized water; for Fraction of tablet dissolved / Dissolution: tablet
Protocol: The dissolution media used were (a) pH 1 (0.1N HCl) 50 ml of cone HCl mixed in 6 L of water; (b) pH 4.5 acetate buffer (20 mM) […] of sodium acetate trihydrate dissolved in 6 L of water, pH adjusted to 4.5 with acetic acid; (c) pH 5.5 phosphate buffer (20 mM) 16.3 g of potassium dihydrogen phosphate in 6 L of water. pH adjusted to 5.5 with NaOH; (d) pH 6.8 phosphate buffer (20 mM) 16.3 g of potassium dihydrogen phosphate in 6 L of water. pH adjusted 6.8 with NaOH. A standard dissolution protocol was used. The standard solution (0.006 mg/mL of eszopiclone free base) was prepared by weighing a known amount (˜20 mg) of the free base into a 100 mL volumetric flask. 10 mL of acetonitrile was added into the flask and sonicated until the solids dissolved completely. The solution was cooled to room temperature and made up to the 100 mL mark using media and mixed well. Dilute 3 mL to 100 mL using media. The tables were prepared by transferring 500 mL dissolution media into the 6 vessels. Blank readings were taken for all the probes using media. Standards were read for individual vessels. Probes were washed with media and then inserted back into each vessel. One tablet was transferred into each vessel. The dissolution program was started immediately and readings were taken at 305 nm for 60 min (every 1 min for 20 min and then every 10 min).
FIG. 1 depicts dissolution profiles of the eszopiclone free base at pH 1 (0.1N HCl), pH 4.5 in buffer, pH 5.5 in buffer, pH 6.8 in buffer and in deionized water. […] It can be seen that the dissolution is greater than 50% within five minutes and greater than 80% at one hour at all pH.

SMILES | pH measured at saturation [1] | Solubility ([1]; water, ambient, equilibrated 24 hour) | Dependence of dissolution on pH of the medium ([2]; listed as eszopiclone free base) | Fraction of tablet dissolved ([2]; deionized water, at one hour) | Dissolution ([2]; pH 1 (0.1N HCl)) | Fraction of tablet dissolved ([2]; pH 6.8 buffer, at one hour) | Dependence of dissolution on pH of the medium ([2]; listed as L-malate salt) | Dissolution ([2]; at one hour, all pH (pH 1, 4.5, 5.5, 6.8, deionized water)) | Dissolution ([2]; within five minutes, all pH (pH 1, 4.5, 5.5, 6.8, deionized water))
CN1CCN(C(=O)O[C@H]2c3nccnc3C(=O)N2c2ccc(Cl)cn2)CC1 [Free base, [(9S)-8-(5-chloropyridin-2-yl)-7-oxo-2,5,8-triazabicyclo[4.3.0]nona-1,3,5-trien-9-yl]-4-methyl piperazine-1-carboxylate] | 7.6 | 0.2^1 mgA/mL | decreases markedly as the pH rises | less than one half | rapid and complete | less than one half | – | – | –
CN1CCN(C(=O)O[C@H]2c3nccnc3C(=O)N2c2ccc(Cl)cn2)CC1 [L-malate, (S)-Zopiclone L-Malate] | 3.9 | – | – | – | – | – | dissolve quickly and at substantially the same rate, regardless of the pH of the dissolving medium | greater than 80% | greater than 50%
